Article PMC6268433, “New Sorafenib Derivatives: Synthesis, Antiproliferative Activity Against Tumour Cell Lines and Antimetabolic Evaluation” (Molecules, 2012)

Columns and labels:
[1] = test system: RNA synthesis in CEM cells; assay: Antimetabolic activity: [5-3H]Urd incorporation (RNA synthesis) in CEM cell cultures; format: cell-based; conditions: Homo sapiens, CCRF-CEM, ~20 h, TCA-insoluble material
Description: (§1) A variety of compounds (2a, 3a, 4a with a cycloalkyl substituent directly attached to nitrogen atom, 2c, 3c, 4c with a cycloalkyl bound to nitrogen through a short spacer and 2e, 3e, 4e with an aromatic substituent) have been investigated on their inhibitory activity against DNA, RNA and protein synthesis in CEM cell cultures. The compounds were equally inhibitory to dThd (DNA synthesis), Urd (RNA synthesis) and Leu (protein synthesis) incorporation into TCA-insoluble cell material. The 2 series of compounds were least inhibitory whereas the 4 series were most inhibitory (IC50 in the lower micromolar range). Their antimetabolic IC50 values closely corresponded to their antiproliferative IC50 values. They also behaved as sorafenib in terms of antimetabolic potential (Table 3).
(§2) The procedures have been modified from previously described methods. Human CEM cells were seeded in 96-well microtiter plates at 10 × 10^4 cells/200 µL-well in the presence of serial dilutions of the tested compounds. Then, 0.25 µCi of [CH3-^3H]dThd (radiospecificity: 52 Ci/mmol) or 1 µCi of [5-^3H]Urd (radiospecificity: 26 Ci/mmol) or [4,5-^3H]Leu (radiospecificity: 160 Ci/mmol) were added and the drug-exposed tumour cell cultures further incubated at 37 °C for ~20 h. Then the content of each well was transfered to glass fiber discs (Wattman, GE Healthcare, Maidstone, UK), mounted on a manifold (Millipore, Billerica, MA, USA) and subsequently washed with PBS (to remove the radiolabel material that has not been incorporated in the cellular macromolecules), 10% and 5% trichoroacetic acid (TCA) (to precipitate DNA, RNA and proteins) and ethanol. Then, the radioactivity (TCA precipitate) associated with each disc was determined in a liquid scintillation counter (Packard, Palo Alto, CA, USA).

CaCo-2 cell cultures = assay: Uptake at apical side and release at basolateral side of CaCo-2 cell cultures; format: in vitro ADME, human; conditions: 100 µmol·L^–1 at apical side, 0-24 h, HPLC
Description: Derivatives 2a, 3a and 4a have been examined for their efficiency of uptake at the apical site and subsequent delivery at the basolateral site of colon carcinoma CaCo-2 cell cultures. This model system can be used to predict the potential of a drug to show oral bioavailability. Sorafenib was included as the reference compound. […] The molecular basis of this phenomenon is yet unclear.
Figure 1 Release of the tested compounds at the basolateral side by CaCo-2 cell cultures. Hundred micromolar concentrations of the tested compounds were added at the apical side of confluent CaCo-2 cell cultures, and the appearance of the intact tested compound at the basolateral side was measured by HPLC analysis.
Human colon carcinoma CaCo-2 cells were seeded in the inner wells of a double-chamber-well-tray at 150,000 cells (0.5 mL) per 1 mL-well. The outer wells also contain 0.5 mL medium (without cells). After the cells were grown to confluency (~2 days) at 37 °C in a humidified CO2-controlled atmosphere, 100 µmol·L^–1 tested compound (final concentration) was added to the inner well, and the medium from the outer wells was replaced by 800 µL PBS (containing 10% foetal bovine serum). At different time points (i.e., 0, 2, 4, 6, 8 and 24 h), 50 µL was removed from the outer wells and mixed with 100 µL cold methanol. The mixture was left on ice for 10 min, centrifuged to remove the precipitate, and the supernatant was analysed by HPLC (reversed phase) to determine the drug concentration that appeared in the outer wells (reflecting basolateral drug efflux) in function of time.

[2] = test system: HCT 116 (colon carcinoma); assay: Cytostatic activity, MTT assay; format: cell-based, human; conditions: Homo sapiens, HCT-116, 72 h, read-out: Tumour cell growth/IC50 HCT 116
Experimental: (§3) The experiments were carried out on six human tumour and one murine cell lines, which are derived from five solid tumour types and two (one murine and one human) suspension tumour cell lines. The following cell lines were used: HCT 116 (colon carcinoma), SW 620 (colon carcinoma), MCF-7 (breast carcinoma), H 460 (lung carcinoma), L1210 (murine leukemia), CEM (human lymphoma) and HeLa (cervix carcinoma). […] Compounds 3d and 3e with a benzene ring in the amide moiety, exerted a somewhat stronger (but still rather poor) cytostatic effect (IC50 ≈ 20-90 µM). […] The compounds were also equally cytostatic against primary human embryonic lung (HEL) fibroblast cells (Table 2). The obtained data clearly point to the obligatory presence of the [4-chloro-3-(trifluoromethyl)phenyl]carbamoyl group being crucial for high potency. Also, the 4a–e series of compounds are far more lipophilic than the 2 and 3 series of compounds, which may be related to their increased cytostatic potential.
(§4) HCT 116, SW 620, MCF-7, and H 460 cells were cultured as monolayers and maintained in Dulbecco’s modified Eagle medium (DMEM), supplemented with 10% fetal bovine serum (FBS), 2 mmol·L^–1 L-glutamine, 100 U·mL^–1 penicillin and 100 μg·mL^–1 streptomycin in a humidified atmosphere with 5% CO2 at 37 °C. The growth inhibition activity was assessed as described previously, according to the slightly modified procedure of the National Cancer Institute, Developmental Therapeutics Program. Briefly, the cells were seeded onto standard 96-well microtiter plates on day 0. The cell concentrations were adjusted according to the cell population doubling time (PDT): 3000 cells/well for HCT116 and SW 620 cell lines (PDT = 20–24 h) and 4,000 cells/well for MCF-7 cell lines (PDT = 33 h). Tested agents were then added in five consecutive 10-fold dilutions (10^–8 to 10^–4 mol·L^–1) and incubated for further 72 h. Working dilutions were freshly prepared on the day of testing. The solvent (DMSO) was also tested for eventual inhibitory activity by adjusting its concentration to be the same as in working concentrations (maximal concentration of DMSO was 0.25%). After 72 h of incubation, the cell growth rate was evaluated by performing the MTT assay (Promega) which detects dehydrogenase activity in viable cells. The absorbency (OD, optical density) was measured on a microplate reader at 570 nm. Each test point was performed in quadruplicate in at least three individual experiments. The results are expressed as IC50, which is the concentration necessary for 50% of inhibition. […] Each result is a mean value from three separate experiments.

SW 620 (colon carcinoma) = assay: Cytostatic activity, MTT assay; format: cell-based, human; conditions: Homo sapiens, SW-620, 72 h, read-out: Tumour cell growth/IC50 SW 620
Experimental: as §3, §4

MCF-7 (breast carcinoma) = assay: Cytostatic activity, MTT assay; format: cell-based, human; conditions: Homo sapiens, MCF7, 72 h, read-out: Tumour cell growth/IC50 MCF-7
Experimental: as §3, §4

H 460 (lung carcinoma) = assay: Cytostatic activity, MTT assay; format: cell-based, human; conditions: Homo sapiens, NCI-H460, 72 h, read-out: Tumour cell growth/IC50 H 460
Experimental: as §3, §4

[3] = test system: primary human embryonic lung (HEL) fibroblast cells; assay: Cytostatic activity, Coulter counter; format: cell-based; conditions: Homo sapiens, Fibroblast; 72 h, cell number by Coulter counter; primary fibroblasts
Experimental: as §3
(§5) The cytostatic activity of the tested compounds against murine leukemia L1210, human cervix carcinoma HeLa, human embrionic lung (HEL) and T-lymphocyte CEM cells was determined with cells grown in suspension (L1210, CEM) or monolayers (HeLa, HEL) in 200 µL-wells of 96-well microtiter plates (initial cell number: 5–7.5 × 10^4 cells/well). After 48 (L1210) or 72 (CEM, HeLa, HEL) h, the tumour cell number was determined by the use of a Coulter counter.

CEM (human lymphoma) = assay: Cytostatic activity, Coulter counter; format: cell-based; conditions: Homo sapiens; 72 h, cell number by Coulter counter; read-out: Tumour cell growth/IC50 CEM
Experimental: as §3, §5

L1210 (murine leukemia) = assay: Cytostatic activity, Coulter counter; format: cell-based; conditions: Mus musculus, L1210; 48 h, cell number by Coulter counter; read-out: Tumour cell growth/IC50 L1210
Experimental: as §3, §5

[4] = test system: DNA synthesis in CEM cells; assay: Antimetabolic activity: [CH3-3H]dThd incorporation (DNA synthesis) in CEM cell cultures; format: cell-based; conditions: Homo sapiens, CCRF-CEM, ~20 h, TCA-insoluble material
Description: as §1, §2

[5] = test system: protein synthesis in CEM cells; assay: Antimetabolic activity: [4,5-3H]Leu incorporation (protein synthesis) in CEM cell cultures; format: cell-based; conditions: Homo sapiens, CCRF-CEM, ~20 h, TCA-insoluble material
Description: as §1, §2

HeLa (cervix carcinoma) = assay: Cytostatic activity, Coulter counter; format: cell-based, human; conditions: Homo sapiens, HeLa; 72 h, cell number by Coulter counter; read-out: Tumour cell growth/IC50 HeLa
Experimental: as §3, §5

[6] = test system: panel of carcinoma, lymphoma and leukemia tumour cell lines; assay: Cytostatic activity across the panel of tumour cell lines; format: cell-based; conditions: Table 2; read-out: IC50 (cytostatic effect, range over cell lines)
Experimental: as §3, with “The obtained data clearly point to the obligatory presence of the [4-chloro-3-(trifluoromethyl)phenyl]carbamoyl group being crucial for high potency. Also, the 4a–e series of compounds are far more lipophilic than the 2 and 3 series of compounds, which may be related to their increased cytostatic potential.” left out
HCT 116, SW 620, MCF-7, and H 460 cells were cultured as monolayers and maintained in Dulbecco’s modified Eagle medium (DMEM), supplemented with 10% fetal bovine serum (FBS), 2 mmol·L^–1 L-glutamine, 100 U·mL^–1 penicillin and 100 μg·mL^–1 streptomycin in a humidified atmosphere with 5% CO2 at 37 °C. The growth inhibition activity was assessed as described previously, according to the slightly modified procedure of the National Cancer Institute, Developmental Therapeutics Program. […] After 72 h of incubation, the cell growth rate was evaluated by performing the MTT assay (Promega) which detects dehydrogenase activity in viable cells. The absorbency (OD, optical density) was measured on a microplate reader at 570 nm. […]

| Compound | IC50 [1] [µM] | IC50 [2] [µM] | IC50 (SW 620 (colon carcinoma)) [µM] | IC50 (MCF-7 (breast carcinoma)) [µM] | IC50 (H 460 (lung carcinoma)) [µM] | IC50 [4] [µM] | IC50 [5] [µM] | IC50 [6] [µM] | melting point [°C] | Drug delivery at the basolateral site compared with sorafenib (CaCo-2 cell cultures) | IC50 [3] [µM] | IC50 (CEM (human lymphoma)) [µM] | IC50 (L1210 (murine leukemia)) [µM] | IC50 (HeLa (cervix carcinoma)) [µM] |
| --- | --- | --- | --- | --- | --- | --- | --- | --- | --- | --- | --- | --- | --- | --- |
| O=C(NC1CCCC1)c1cc(Cl)ccn1 [Compound 2a, 4-Chloro-N-cyclopentylpyridine-2-carboxamide] | > 100 | > 100 | > 100 | > 100 | ≥ 100 | > 100 | > 100 |  |  | higher drug delivery at the basolateral site than sorafenib | > 100 | > 100 | > 100 | > 100 |
| Nc1ccc(Oc2ccnc(C(=O)NCCc3ccccc3)c2)cc1 [Compound 3e, 4-(4-Aminophenoxy)-N-phenylethylpyridine-2-carboxamide] | 49.9 ± 17.9 | 25 ± 2 | 20 ± 7 | 34 ± 17 | 20 | > 100 | > 100 | 20 to 90 |  |  | > 100 | 42 ± 3 | 63 ± 8.9 | 39 ± 3 |
| O=C(Nc1ccc(Oc2ccnc(C(=O)NC3CCCC3)c2)cc1)Nc1ccc(Cl)c(C(F)(F)F)c1 [Compound 4a, 4-[4-[[4-Chloro-3-(trifluoromethyl)phenyl]carbamoylamino]phenoxy]-N-cyclopentyl-pyridine-2-carboxamide] | 7.7 ± 2.1 | 3 ± 0.5 | 2 ± 0.4 | 4 ± 1 | 1 | 12.5 ± 6.7 | 6.1 ± 0.7 |  |  | less efficient than the reference compound | 2.8 | 4.2 ± 0.6 | 4.2 ± 0.8 | 3.1 ± 0.6 |
| O=C(Nc1ccc(Oc2ccnc(C(=O)NCC3CCCCC3)c2)cc1)Nc1ccc(Cl)c(C(F)(F)F)c1 [Compound 4c, 4-[4-[[4-Chloro-3-(trifluoromethyl)phenyl]carbamoylamino]phenoxy]-N-cyclohexylmethyl-pyridine-2-carboxamide] | 12.2 ± 8.4 | 3 ± 1 | 3 ± 0.4 | 2 ± 0.1 | 2 ± 0.2 | 20.1 ± 10.9 | 27.4 ± 12.7 |  | 156 to 160 |  | 2.9 | 2 ± 0.5 | 1.8 ± 0.3 | 2.7 ± 1.8 |

The next lines start with results.

| IC50 [1] [µM] | IC50 [2] [µM] | IC50 (SW 620 (colon carcinoma)) [µM] | IC50 (MCF-7 (breast carcinoma)) [µM] | IC50 (H 460 (lung carcinoma)) [µM] | IC50 [4] [µM] | IC50 [5] [µM] | IC50 [6] [µM] | melting point [°C] | Compound | Drug delivery at the basolateral site compared with sorafenib (CaCo-2 cell cultures) | IC50 [3] [µM] | IC50 (CEM (human lymphoma)) [µM] | IC50 (L1210 (murine leukemia)) [µM] | IC50 (HeLa (cervix carcinoma)) [µM] |
| --- | --- | --- | --- | --- | --- | --- | --- | --- | --- | --- | --- | --- | --- | --- |
| > 100 | 54 ± 21 | ≥ 100 | 53 ± 40 | > 100 | > 100 | > 100 |  |  | Nc1ccc(Oc2ccnc(C(=O)NC3CCCC3)c2)cc1 [Compound 3a, 4-(4-Aminophenoxy)-N-cyclopentylpyridine-2-carboxamide] | higher drug delivery at the basolateral site than sorafenib | > 100 | ≥ 100 | 121 ± 50.5 | 77 ± 3.4 |
|  | 29 ± 4 | 37 ± 6 | 29 ± 13 | 42 ± 9 |  |  | 20 to 90 |  | Nc1ccc(Oc2ccnc(C(=O)NCc3ccccc3)c2)cc1 [Compound 3d, 4-(4-Aminophenoxy)-N-benzylpyridine-2-carboxamide] |  | > 100 | 94 ± 2.2 | 66 ± 3.1 | 94 ± 1.9 |
